Experimental data taken from ChEMBL document CHEMBL5046308, “Heterobifunctional Compounds as BRAF Degraders for Treating Cancer” (ACS Med Chem Lett, 2022).

Molecular target: Protein cereblon/Serine/threonine-protein kinase B-raf (Homo sapiens, UniProt P15056+Q96SW2, V600E)
Assay: Protac activity at CRBN/BRAF V600E mutant (unknown origin) assessed as BRAF V600E degradation by HiBit cellular BRAF V600E degradation assay

Chain of Protein cereblon/Serine/threonine-protein kinase B-raf (P15056 2-766 V600E limits assumed, stated change not applied): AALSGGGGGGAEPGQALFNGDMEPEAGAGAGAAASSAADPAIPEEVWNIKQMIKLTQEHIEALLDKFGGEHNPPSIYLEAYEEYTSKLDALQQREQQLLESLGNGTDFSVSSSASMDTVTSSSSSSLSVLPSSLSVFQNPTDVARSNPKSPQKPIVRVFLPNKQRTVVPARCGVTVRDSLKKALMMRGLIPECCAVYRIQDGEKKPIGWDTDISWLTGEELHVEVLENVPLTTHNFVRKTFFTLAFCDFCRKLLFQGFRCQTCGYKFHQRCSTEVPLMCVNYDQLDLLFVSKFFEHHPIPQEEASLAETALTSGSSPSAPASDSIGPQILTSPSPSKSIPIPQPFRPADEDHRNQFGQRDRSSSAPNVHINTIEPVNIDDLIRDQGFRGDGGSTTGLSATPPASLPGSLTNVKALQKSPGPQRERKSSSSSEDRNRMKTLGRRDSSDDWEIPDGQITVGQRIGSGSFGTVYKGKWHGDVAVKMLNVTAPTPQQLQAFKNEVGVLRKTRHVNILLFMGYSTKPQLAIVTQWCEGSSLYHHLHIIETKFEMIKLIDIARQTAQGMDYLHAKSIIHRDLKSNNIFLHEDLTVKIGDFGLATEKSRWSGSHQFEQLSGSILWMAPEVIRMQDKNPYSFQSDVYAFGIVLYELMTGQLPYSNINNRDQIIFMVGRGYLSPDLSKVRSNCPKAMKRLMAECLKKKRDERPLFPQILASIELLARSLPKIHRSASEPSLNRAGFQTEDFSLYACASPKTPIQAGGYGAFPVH
Chain of Protein cereblon/Serine/threonine-protein kinase B-raf (Q96SW2 whole entry, stated change not applied): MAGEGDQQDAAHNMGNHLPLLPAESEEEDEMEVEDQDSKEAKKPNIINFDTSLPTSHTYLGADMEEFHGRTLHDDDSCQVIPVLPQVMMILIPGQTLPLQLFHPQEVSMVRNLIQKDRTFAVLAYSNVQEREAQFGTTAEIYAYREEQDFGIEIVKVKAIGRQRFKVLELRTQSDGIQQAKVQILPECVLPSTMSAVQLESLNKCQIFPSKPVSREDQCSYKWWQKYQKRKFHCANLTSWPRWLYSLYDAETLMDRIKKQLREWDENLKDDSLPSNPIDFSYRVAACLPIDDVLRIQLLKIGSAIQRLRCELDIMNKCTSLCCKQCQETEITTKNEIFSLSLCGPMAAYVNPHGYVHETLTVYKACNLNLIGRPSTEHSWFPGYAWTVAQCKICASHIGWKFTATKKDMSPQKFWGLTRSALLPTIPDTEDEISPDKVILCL

| Structure (SMILES) | DC50 [nM] |
| --- | --- |
| CCN(C)S(=O)(=O)Nc1ccc(F)c(C(=O)c2c[nH]c3ncc(-c4ccc(N5CCN(C(=O)CCCNc6cccc7c6C(=O)N(C6CCC(=O)NC6=O)C7=O)CC5)nc4)cc23)c1F (stereo unspecified) | 26 |
| CCN(C)S(=O)(=O)Nc1ccc(F)c(C(=O)c2c[nH]c3ncc(-c4ccc(N5CCN(C(=O)CCCOc6cccc7c6C(=O)N(C6CCC(=O)NC6=O)C7=O)CC5)cc4)cc23)c1F (stereo unspecified) | 16 |
| CCN(C)S(=O)(=O)Nc1ccc(F)c(C(=O)c2c[nH]c3ncc(-c4ccc(N5CCN(C(=O)CCCOc6cccc7c6C(=O)N(C6CCC(=O)NC6=O)C7=O)CC5)nc4)cc23)c1F (stereo unspecified) | 10 |
| CCN(C)S(=O)(=O)Nc1ccc(F)c(C(=O)c2c[nH]c3ncc(-c4ccc(N5CCN(C(=O)[C@H]6C[C@H](Nc7cccc8c7C(=O)N(C7CCC(=O)NC7=O)C8=O)C6)CC5)nc4)cc23)c1F (stereo partly specified) | 10 |
| CCN(C)S(=O)(=O)Nc1ccc(F)c(C(=O)c2c[nH]c3ncc(-c4ccc(N5CCN(C(=O)[C@H]6C[C@H](Nc7cccc8c7C(=O)N(C7CCC(=O)NC7=O)C8=O)C6)CC5)cc4)cc23)c1F (stereo partly specified) | 23 |
| CCN(C)S(=O)(=O)Nc1ccc(F)c(C(=O)c2c[nH]c3ncc(-c4cnc(N5CCN(C(=O)CCCOc6cccc7c6C(=O)N(C6CCC(=O)NC6=O)C7=O)CC5)nc4)cc23)c1F (stereo unspecified) | 20 |
